4 compounds from patent US20150079029A1, “METHODS AND COMPOSITIONS FOR INHIBITING ANGIOGENESIS” (Oncology Research International Limited, priority 2006, published 2015) can be followed below.

Test [1] concerns angiogenesis induced by bFGF in angiochambers. Kind of test: AngioChamber assay: bFGF-induced fibrous capsule formation and haemoglobin (Drabkin) blood content. Conditions: i.p. once daily for 5 days, dioscin 10, deltonin 10, trillin 60, prosapogenin A 20, sorafenib 60 mg/kg; for Average blood content (from haemoglobin content): Drabkin assay; for Average chamber weight: wet weight on Day 6. The test is classed as in vivo, FvB mice. An excerpt: The AngioChamber™ assay utilises the normal physiological process of wound healing, which promotes the formation of a fibrous capsule around an implanted chamber (Wood et al, (2000) Cancer Research, 60(8):2178-89). The inclusion of bFGF in the chamber induces blood vessel development in the fibrous capsule. The assay therefore assesses the efficacy of treatments by gauging their effect both on the fibrous capsule formation, measured by the wet weight of the capsule at the termination of the study and by determination of blood vessel supply to the chamber by assaying for haemoglobin content. The haemoglobin content of the fibrous capsule is a measure of neovascularisation, which is assayed by the Drabkin Assay.
The angiochambers were porous tissue chambers made of perfluoro-alkoxy-Teflon and filled with 0.8% agar containing 20 IU/mL heparin, with or without 1 μg/mL human bFGF. Both ends of the chamber were sealed with removable caps of the same material. The chambers were filled under sterile conditions with 0.8% agar containing 20 IU/mL heparin, with or without 1 μg/mL human bFGF. The agarose solution was maintained at 37° C. prior to filling the chambers.
70 female FvB mice were microchipped, weighed and randomised based on body weight into 7 groups with 10 mice per group. For implantation, the mice were anaesthetised by halothane inhalation. Approximately 150 μL sterile filtered air was injected subcutaneously in the back of each mouse, between the shoulder blades, resulting in an air pocket in which a small incision was made and the chamber inserted. The wound was closed with two 1.4 mm wound clips.
The treatments, which were all formulated in NMP:PEG300:Water (1:9:10, v/v) and administered daily by intraperitoneal injection, were as given in the Table 7:
Treatment was started when all the animals had recovered fully from anaesthesia, and continued for 5 days. On Day 6, the vascularised fibrous chambers were removed and the wet weight recorded for each implant. The chamber from each mouse was then snap frozen with liquid nitrogen and stored at −20° C. until assessed for haemoglobin content.
The fibrous capsule samples were thawed and kept on ice during the procedure. Sterile water was added to each thawed sample, and the sample homogenised with an UltraTourax at high speed. To avoid cross-contamination, the UltraTourax was flushed for 30 seconds with 5 mL distilled water after homogenising each sample. The homogenate was transferred into 2 mL Eppendorf tubes and stored on ice. The Eppendorf tubes were centrifuged at 4° C. and high speed (14,000 relative centrifugal force (RCF)) for 60 min. 1.0-1.5 mL of the intermediate aqueous solution (homogenate), between the pellet and the fat layer, was then transferred to fresh labelled 1.5 mL Eppendorf tubes and stored on ice. 50 μL of each homogenate was transferred into separate wells of a 96-well plate. 50 μL of water was transferred into 2 wells as blanks. 50 μL of Drabkin's reagent was then added to each well and mixed. After 15 min incubation at room temperature, the absorbance of each sample at 540 nm was measured and the volume of blood for each sample calculated from a standard curve.
The Percent Induction for a treatment is the difference in blood content between the treatment (+bFGF) and the vehicle alone (no bFGF), divided by the difference in blood content between the vehicle with bFGF and the vehicle alone (no bFGF), expressed as a percentage.

Test [2] concerns angiogenesis induced by bFGF in angiosponges. Briefly: AngioSponge assay: bFGF-induced neovascularisation of implanted gelfoam, CD31 staining. The test is classed as in vivo, C3H/Hej mice. Conditions: i.p. once daily for 10 days, dioscin 10, deltonin 10, trillin 60, prosapogenin A 20, sorafenib 60 mg/kg; for Average number of blood vessels (CD31 counts): sponges excised Day 11. The text has this:
The AngioSponge™ assay enables slow release of agarose-captured growth factor, which stimulates endothelial cell proliferation and migration, and provides a tissue-like matrix for neovascularisation. The assay can be therefore be used to gauge the efficacy of treatments designed to inhibit angiogenesis, determined by counting blood vessels after CD31 immunohistochemical staining of endothelial cells (McCarty et al, International Journal of Oncology, 21:5-10, 2002).
Gelfoams (Pharmacia & Upjohn) were cut into approximately 7×7×7 mm pieces, under sterile conditions, and pre-soaked over night with sterile phosphate buffered saline. The hydrated gelfoams were then partially dried. Growth factor (bFGF) was diluted to an initial concentration of 2 μg/mL in warm (37° C.) 0.4% agarose. The partially dried gelfoams were placed in the growth factor solution, or in warm 0.4% agarose without growth factor, and then transferred to a Petri dish containing warm 0.4% agarose (1:1 dilution, final growth factor concentration 1 μg/mL) for polymerisation and solidification.
70 female C3H/Hej mice were microchipped, weighed and randomised based on body weight into 7 groups with 10 mice per group. For implantation, the mice were anaesthetised by halothane inhalation. A small channel forged with a trocar needle between the 3rd and 4th mammary gland, the sponge was inserted to the full depth of the channel and the incision closed with a wound clip.
The compounds were formulated in N-methylpyrrolidone (NMP):PEG300:Water (1:9:10, v/v). Dosing was established on the basis of in vitro IC50 data and preliminary toxicity studies. Compounds were administered daily by intraperitoneal injection, at a dosing volume of 10 mL/kg, once daily for the study period as shown in Table 5.
Treatment was started when all the animals had recovered fully from anaesthesia, and continued for 10 days. On Day 11, the angiosponges were excised and snap frozen in liquid nitrogen with OCT for CD31 staining on frozen sections.
CD31/PECAM-1 is an antigen present specifically on endothelial cells and can therefore be used as a marker for blood vessels. Frozen samples of the sponge were cryo-sectioned (12 μm), mounted on positively-charged Plus slides (Fisher Scientific), and air-dried for 30 minutes. Frozen sections were in turn fixed in cold acetone, acetone/chloroform (1:1, v/v), and acetone for 5 min each, and then washed with PBS (phosphate buffer saline). After blocking with PBS containing 5% normal horse serum and 1% normal goat serum, sections were incubated with PECAM-1 monoclonal rat anti-mouse CD31 antibody (1:5000 in blocking solution, PharMingen, San Diego, Calif.) for 4 hours at room temperature. The slides were then washed three times with PBS and incubated with adequate secondary anti-rat antibody. Positive reactions were visualized by incubating the slides in stable 3,3′-diaminobenzidine for 5-10 min. The sections were rinsed with distilled water, counter-stained with Gill's haematoxylin for 1 min, and mounted with Universal Mount (Research Genetics). […] Mouse placenta was used as a positive control. For quantification, 3 independent visual fields were chosen and positive stained spots or vessels with lumen were counted.
The Percent Induction for a treatment is the difference in CD31 counts between the treatment (+bFGF) and the vehicle alone (no bFGF), divided by the difference in CD31 counts between the vehicle with bFGF and the vehicle alone (no bFGF), expressed as a percentage.

In the case of `C[C@@H]1CC[C@@]2(OC1)O[C@H]1C[C@H]3[C@@H]4CC=C5C[C@@H](O[C@@H]6O[C@H](CO)[C@@H](O[C@@H]7O[C@@H](C)[C@H](O)[C@@H](O)[C@H]7O)[C@H](O)[C@H]6O[C@@H]6O[C@@H](C)[C@H](O)[C@@H](O)[C@H]6O)CC[C@]5(C)[C@H]4CC[C@]3(C)[C@H]1[C@@H]2C` [Dioscin, diosgenin Rha2, [Rha4], Glc], in test [1], the “Percent Induction (blood content relative to vehicle + bFGF minus vehicle alone)” value was 45%, the “Average blood content (from haemoglobin content)” value (“Average blood content” for short) was 1.24 µL and the Average chamber weight is recorded as 0.131 g. For the same compound, in test [2], the “Percent Induction (CD31 counts relative to vehicle + bFGF minus vehicle alone)” value came to 49% and the “Average number of blood vessels (CD31 counts)” value (“Average number of blood vessels” below) is given as 35.

`C[C@@H]1CC[C@@]2(OC1)O[C@H]1C[C@H]3[C@@H]4CC=C5C[C@@H](O[C@@H]6O[C@H](CO)[C@@H](O)[C@H](O)[C@H]6O[C@@H]6O[C@@H](C)[C@H](O)[C@@H](O)[C@H]6O)CC[C@]5(C)[C@H]4CC[C@]3(C)[C@H]1[C@@H]2C` [Prosapogenin A, diosgenin Rha2, Glc]: in test [1], the “Percent Induction (blood content relative to vehicle + bFGF minus vehicle alone)” value came out at 84%, the “Average blood content” value turned out to be 1.92 µL and the Average chamber weight came to 0.389 g. Moreover, in test [2], the “Percent Induction (CD31 counts relative to vehicle + bFGF minus vehicle alone)” value is 29% and the “Average number of blood vessels” value is 21.

Consider `CNC(=O)c1cc(Oc2ccc(NC(=O)Nc3ccc(Cl)c(C(F)(F)F)c3)cc2)ccn1` [Sorafenib, reference compound], for which, in test [1], the “Percent Induction (blood content relative to vehicle + bFGF minus vehicle alone)” value came to 27%, the “Average blood content” value came to 0.92 µL and the Average chamber weight came to 0.322 g. In test [2], the “Percent Induction (CD31 counts relative to vehicle + bFGF minus vehicle alone)” value is recorded as 3% and the “Average number of blood vessels” value was 2.

As to `C[C@@H]1CC[C@@]2(OC1)O[C@H]1C[C@H]3[C@@H]4CC=C5C[C@@H](O[C@@H]6O[C@H](CO)[C@@H](O)[C@H](O)[C@H]6O)CC[C@]5(C)[C@H]4CC[C@]3(C)[C@H]1[C@@H]2C` [Trillin, diosgenin-Glc], in test [1], the “Percent Induction (blood content relative to vehicle + bFGF minus vehicle alone)” value is 58%, the “Average blood content” value is 1.46 µL and the Average chamber weight is on record as 0.421 g. In test [2], the “Percent Induction (CD31 counts relative to vehicle + bFGF minus vehicle alone)” value stood at 57% and the “Average number of blood vessels” value worked out at 41.
